From article doi:10.1101/757047v1 (biorxiv, 2019)
Like-named read-outs stand apart in the source and are kept apart here.

Columns and labels:
SLK [1] = molecular target: T1, SLK (Homo sapiens, UniProt Q9H2G2); assay: biochemical
STK10 [2] = molecular target: T2, STK10 (Homo sapiens, UniProt O94804); assay: biochemical
GAK [3] = molecular target: T3, GAK (Homo sapiens, UniProt O14976); assay: biochemical
T3 sequence (O14976 12-347 limits assumed): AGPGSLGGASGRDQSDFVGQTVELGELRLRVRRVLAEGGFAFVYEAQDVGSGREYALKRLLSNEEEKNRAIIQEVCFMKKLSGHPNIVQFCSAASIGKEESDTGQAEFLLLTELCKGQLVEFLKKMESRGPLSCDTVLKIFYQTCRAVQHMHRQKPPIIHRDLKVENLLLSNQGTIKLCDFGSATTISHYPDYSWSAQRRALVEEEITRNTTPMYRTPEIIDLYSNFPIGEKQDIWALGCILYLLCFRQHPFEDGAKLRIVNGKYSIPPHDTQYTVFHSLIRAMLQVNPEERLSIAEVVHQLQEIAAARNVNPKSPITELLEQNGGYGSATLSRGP

[4] = molecular target: T4, full length GAK protein N-terminally fused with NanoLuc luciferase (Homo sapiens, UniProt O14976); assay: cell-based; set-up: species or system HEK293T
T4 sequence (O14976 2-1311): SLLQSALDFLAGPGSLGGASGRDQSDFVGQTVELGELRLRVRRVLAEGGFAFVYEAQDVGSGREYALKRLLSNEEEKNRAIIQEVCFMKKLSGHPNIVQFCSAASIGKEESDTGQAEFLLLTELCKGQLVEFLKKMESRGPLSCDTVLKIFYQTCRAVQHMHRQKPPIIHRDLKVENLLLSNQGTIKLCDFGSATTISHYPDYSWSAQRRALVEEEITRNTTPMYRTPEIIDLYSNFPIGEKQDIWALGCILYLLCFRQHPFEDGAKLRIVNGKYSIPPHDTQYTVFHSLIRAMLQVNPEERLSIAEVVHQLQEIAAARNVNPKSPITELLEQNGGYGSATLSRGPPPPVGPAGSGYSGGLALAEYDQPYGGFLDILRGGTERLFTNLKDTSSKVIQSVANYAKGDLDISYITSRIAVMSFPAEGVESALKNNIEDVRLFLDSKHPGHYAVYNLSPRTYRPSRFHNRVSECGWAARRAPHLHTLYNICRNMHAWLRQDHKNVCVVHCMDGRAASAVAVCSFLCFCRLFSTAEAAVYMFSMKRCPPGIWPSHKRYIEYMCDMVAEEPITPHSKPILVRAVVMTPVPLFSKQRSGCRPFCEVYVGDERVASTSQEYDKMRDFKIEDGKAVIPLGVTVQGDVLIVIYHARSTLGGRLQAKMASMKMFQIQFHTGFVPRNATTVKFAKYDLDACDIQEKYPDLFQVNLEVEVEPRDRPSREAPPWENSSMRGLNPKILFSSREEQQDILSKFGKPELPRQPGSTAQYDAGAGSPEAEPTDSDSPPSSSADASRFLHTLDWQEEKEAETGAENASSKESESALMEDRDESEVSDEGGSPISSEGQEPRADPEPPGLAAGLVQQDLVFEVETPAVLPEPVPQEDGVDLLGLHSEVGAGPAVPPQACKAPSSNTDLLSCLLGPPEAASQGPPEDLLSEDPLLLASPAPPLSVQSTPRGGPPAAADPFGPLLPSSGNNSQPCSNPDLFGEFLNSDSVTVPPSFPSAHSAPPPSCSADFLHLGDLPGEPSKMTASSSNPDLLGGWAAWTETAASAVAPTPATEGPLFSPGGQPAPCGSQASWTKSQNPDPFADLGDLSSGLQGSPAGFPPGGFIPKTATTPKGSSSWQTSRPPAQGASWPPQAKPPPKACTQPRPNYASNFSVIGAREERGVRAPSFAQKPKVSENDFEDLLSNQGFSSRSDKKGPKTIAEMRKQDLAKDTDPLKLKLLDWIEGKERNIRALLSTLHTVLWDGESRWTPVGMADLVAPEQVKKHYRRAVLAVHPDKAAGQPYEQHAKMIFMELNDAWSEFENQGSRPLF

SLK [5] = molecular target: T1, SLK; assay: biochemical; remark: listed apart in the source
STK10 [6] = molecular target: T2, STK10; assay: biochemical; remark: listed apart in the source
SLK [7] = molecular target: T1, SLK; assay: biochemical; remark: listed apart in the source
GAK [8] = molecular target: T3, GAK; assay: biochemical; remark: listed apart in the source
STK10 [9] = molecular target: T2, STK10; assay: biochemical; remark: listed apart in the source
[10] = molecular target: T4, full length GAK protein N-terminally fused with NanoLuc luciferase; assay: cell-based; set-up: species or system HEK293T; remark: listed apart in the source
[11] = molecular target: T4, full length GAK protein N-terminally fused with NanoLuc luciferase; assay: cell-based; set-up: species or system HEK293T; remark: listed apart in the source
GAK [12] = molecular target: T3, GAK; assay: biochemical; remark: listed apart in the source
SLK [13] = molecular target: T1, SLK; assay: biochemical; remark: listed apart in the source

T1 sequence (Q9H2G2 34-292): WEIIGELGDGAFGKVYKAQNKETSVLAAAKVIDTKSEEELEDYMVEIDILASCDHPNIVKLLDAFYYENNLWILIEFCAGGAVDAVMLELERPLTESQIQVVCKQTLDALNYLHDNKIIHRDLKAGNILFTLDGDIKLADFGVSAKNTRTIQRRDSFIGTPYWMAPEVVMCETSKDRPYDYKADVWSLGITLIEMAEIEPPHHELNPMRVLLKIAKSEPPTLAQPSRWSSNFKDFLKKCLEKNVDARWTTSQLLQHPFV
T2 sequence (O94804 36-294 limits assumed): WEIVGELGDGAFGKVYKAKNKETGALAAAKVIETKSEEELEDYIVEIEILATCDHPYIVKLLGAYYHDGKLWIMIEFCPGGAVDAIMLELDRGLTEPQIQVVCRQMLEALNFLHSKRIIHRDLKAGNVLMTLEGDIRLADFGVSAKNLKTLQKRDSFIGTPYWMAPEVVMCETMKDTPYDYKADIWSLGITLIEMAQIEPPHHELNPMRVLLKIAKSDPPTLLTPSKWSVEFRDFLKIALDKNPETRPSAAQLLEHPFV

| SMILES | Ki (SLK [1]) | Ki (STK10 [2]) | Ki (GAK [3]) | IC50 [4] | further results |
| --- | --- | --- | --- | --- | --- |
| Fc1ccc(Nc2ccnc3ccc(Br)cc23)cc1F [compound 104, 104] | > 55000 nM | > 55000 nM | 11 nM | > 5000 nM | – |
| Fc1cc(F)cc(Nc2ccnc3ccc(Br)cc23)c1 [compound 105, 105] | > 55000 nM | > 55000 nM | 12 nM | > 5000 nM | – |
| Fc1cccc(Nc2ccnc3ccc(Br)cc23)c1 [compound 110, 110] | > 55000 nM | > 55000 nM | 19 nM | 1900 nM | – |
| Fc1ccc(Nc2ncnc3ccc(Br)cc23)cc1 [compound 109, 109] | > 55000 nM | > 55000 nM | 120 nM | > 5000 nM | – |
| C#Cc1cccc(Nc2c(C#N)cnc3cc(OC)c(OC)cc23)c1 [compound 82] | – | – | – | – | Ki (SLK [5]): 18 nM; Ki (STK10 [6]): 27 nM |
| C#Cc1cccc(Nc2c(C#N)cnc3ccccc23)c1 [compound 75, 75] | – | – | – | – | Ki (SLK [7]): 350 nM; Ki (GAK [8]): 18 nM; Ki (STK10 [9]): 340 nM; IC50 [10]: 1500 nM |
| Fc1ccccc1Nc1ccnc2ccc(Br)cc12 [compound 111, 111] | > 55000 nM | 30000 nM | 49 nM | 2600 nM | – |
| C#Cc1cccc(Nc2ncnc3cc(C#N)ccc23)c1 [compound 67, 67] | – | – | – | – | IC50 [11]: > 5000 nM; Ki (GAK [12]): 100 nM; Ki (SLK [13]): 260 nM |
| C#Cc1cccc(Nc2c(C#N)cnc3cc(Cl)ccc23)c1 [compound 84, 84] | – | – | – | – | Ki (SLK [7]): 180 nM; Ki (GAK [8]): 28 nM; Ki (STK10 [9]): 210 nM; IC50 [10]: > 5000 nM |
| C#Cc1cccc(Nc2c(C#N)cnc3ccc(I)cc23)c1 [compound 79, 79] | – | – | – | – | Ki (SLK [7]): 1100 nM; Ki (GAK [8]): 20 nM; Ki (STK10 [9]): 1000 nM; IC50 [10]: > 5000 nM |

The next lines start with results.

| Ki (SLK [1]) | Ki (STK10 [2]) | Ki (GAK [3]) | IC50 [4] | SMILES | further results |
| --- | --- | --- | --- | --- | --- |
| 9400 nM | 6000 nM | 84 nM | > 5000 nM | Brc1cccc(Nc2ncnc3ccc(Br)cc23)c1 [compound 113, 113] | – |
| > 55000 nM | > 55000 nM | 72 nM | > 5000 nM | Brc1cccc(Nc2ccnc3ccc(Br)cc23)c1 [compound 112, 112] | – |
| > 55000 nM | > 55000 nM | 23 nM | 4400 nM | Fc1cc(Nc2ccnc3ccc(Br)cc23)cc(F)c1F [compound 103, 103] | – |
